From US10449223B2, “Use of dehydroeburicoic acid from Antrodia camphorata in the treatment or prevention of diabetes and hyperlipidemia” (priority 2016, dated 2019)

Columns and labels:
[1] = system: STZ-induced diabetic mice; experiment: Histology of epididymal WAT and liver tissue in STZ-induced diabetic mice; type: in vivo, C57BL/6J mice; details: 28 days
Text: Parts of EWAT and liver tissue specimens were investigated as previously described.^31,32 Microscopic images were taken using a microscope (Olympus BX51, BX51, Olympus, Tokyo, Japan).

[2] = system: STZ-induced diabetic mice; experiment: Tissue weight, body weight and food intake in STZ-induced diabetic mice; type: in vivo, C57BL/6J mice; details: 28 days
AMPK = experiment: Western blotting: phospho-AMPK (Thr172)/total AMPK in skeletal muscle and liver of mice; details: STZ-induced diabetic mice; Metf 300 mg/kg/day oral, 28 days
Method: (§6) The study protocol was performed as previously described.^28 Diabetes was induced by intraperitoneal injection of streptozotocin (Sigma Chemical, St. Louis, Mo., USA) for 5 consecutive days. The dosage of STZ was 55 mg/kg (dissolved in 0.05 M cold sodium citrate buffer, pH 4.5). The normal control mice received only citrate buffer of the same volume.
(§7) During the experiment, all mice were fasted overnight, and blood was collected from the retro-orbital sinus. After dosing for 4 weeks, food was removed from the mice at night, and on the next day, the mice after 12 h of fasting were sacrificed. All of the individual tissues were collected and weighed, and parts of tissues were instantly frozen at −80° C. for later target gene analysis.
(§8) PPARα, PPARγ, and FAS proteins were performed by the liver and white adipose tissue of mice. Skeletal muscle from mice was subjected to GLUT4 expression level analysis, and the total membrane fractions were collected with buffer and determined using a described procedure. The protein contents of GLUT4, phospho-AMPK, and total AMPK were detected by Western blotting and determined as described.

PPARα [3] = experiment: Semiquantitative RT-PCR, liver tissue: PPARα mRNA; type: in vivo, C57BL/6J mice; details: STZ-induced diabetic mice; Metf 300 mg/kg/day oral, 28 days
Method: (§1) Total RNA from liver tissue was isolated with a Trizol Reagent (Molecular Research Center, Inc., Cincinnati, Ohio) according to the manufacturer's directions. The integrity of the extracted total RNA was examined by 2% agarose gel electrophoresis, and the RNA concentration was determined by the ultraviolet (UV) light absorbency at 260 nm and 280 nm (Spectrophotometer U-2800A, Hitachi). Total RNA (1 μg) was reverse transcribed to cDNA in a reaction mixture containing buffer, and 5 μL Moloney murine leukemia virus reverse transcriptase (Epicentre, Madison, Wis., USA). The polymerase chain reaction (PCR) was performed in a final 25 μL containing 1 U Blend Taq-Plus (TOYOBO, Japan), 1 μL of the RT first-strand cDNA product, 10 μM of each forward (F) and reverse (R) primer, 75 mM Tris-HCl (pH 8.3) containing 1 mg/L Tween 20, 2.5 mM dNTP, and 2 mM MgCl2. The products were run on 2% agarose gels and stained with ethidium bromide.

GLUT4 [4] = experiment: Western blotting: membrane GLUT4 in skeletal muscle of mice; details: STZ-induced diabetic mice; Metf 300 mg/kg/day oral, 28 days
Method: as §6, §7, §8

PEPCK = experiment: Semiquantitative RT-PCR, liver tissue: PEPCK mRNA; type: in vivo, C57BL/6J mice; details: STZ-induced diabetic mice; Metf 300 mg/kg/day oral, 28 days; relative to CON group (so in the source)
Method: as §1

FAS = experiment: Western blotting: FAS in liver and adipose tissue of mice; details: STZ-induced diabetic mice; Metf 300 mg/kg/day oral, 28 days
Method: as §6, §7, §8

G6 Pase = experiment: Semiquantitative RT-PCR, liver tissue: G6 Pase mRNA; type: in vivo, C57BL/6J mice; details: STZ-induced diabetic mice; Metf 300 mg/kg/day oral, 28 days; relative to CON group (so in the source)
Method: as §1

DGAT2 = experiment: Semiquantitative RT-PCR, liver tissue: DGAT2 mRNA; type: in vivo, C57BL/6J mice; details: STZ-induced diabetic mice; Metf 300 mg/kg/day oral, 28 days; relative to CON group (so in the source)
Method: as §1

PPARγ = experiment: Western blotting: PPARγ in liver and adipose tissue of mice; details: STZ-induced diabetic mice; Metf 300 mg/kg/day oral, 28 days
Method: as §6, §7, §8

PPARα [5] = experiment: Western blotting: PPARα in liver of mice; details: STZ-induced diabetic mice; Metf 300 mg/kg/day oral, 28 days
Method: as §6, §7, §8

SREBP1c = experiment: Semiquantitative RT-PCR, liver tissue: SREBP1c mRNA; type: in vivo, C57BL/6J mice; details: STZ-induced diabetic mice; Metf 300 mg/kg/day oral, 28 days; relative to CON group (so in the source)
Method: as §1

Akt = experiment: phospho-Akt (Ser473)/total Akt in C2C12 myotube cells (Western blot); type: cell-based; details: 100 nM insulin, 25 min
Method: (§2) C2C12 skeletal myoblasts (ATCC, CRL-1772) were maintained in growth media consisting of Dulbecco's modified Eagle's medium (DMEM) (Gibco BRL) supplemented with 10% fetal bovine serum (FBS) (Hyclone) and 100 U/mL penicillin/100 μg/mL streptomycin (Gibco BRL) and split 1:4 using 0.05% trypsin when 80% confluent. Myoblasts were diluted and placed in a 9 cm dish. Cells were cultured to achieve 80-90% confluency, and growth medium was changed as 2% FBS/DMEM every 24 h for 5-7 days.
(§3) Determination of GLUT4 and phospho-Akt (Ser^473)/Total Akt Proteins in Vitro: Differentiated C2C12 cells were serum starved in DMEM/BSA (2 h at 37° C.) prior to incubation either with test compounds (TT at 1, 5, 10, and 25 μg/mL) or with vehicle (DMSO containing saline, final concentration of DMSO=0.2%) for 30 min or with 100 nM insulin for 25 min.
(§4) Following treatment, cells were washed three times with ice-cold PBS and separated into two portions. A portion of the cells was subsequently lysed in RIPA buffer (50 mM Tris-HCl, pH 8, 150 mM NaCl, 1% NP-40, 0.5% sodium deoxycholate, 0.1% SDS) supplemented with complete protease inhibitor cocktail (Roche) and phosphatase inhibitors and then centrifuged at 20000 g for […].
Supernatant protein was collected and stored at −20° C. Another portion of cells was homogenized with buffer (250 mmol/L sucrose, 50 mmol/L Tris, and 0.2 mmol/L edetic acid, pH 7.4) at 4° C., as previously described. The homogenates were centrifuged at 9000 g for 10 min (4° C.). The pellet was suspended with 0.5 mL of homogenization buffer and then centrifuged, repeated three times. The three supernatants were collected, mixed, and centrifuged at 190000 g for 60 min (4° C.). […]
(§5) Protein concentration was determined via BCA assay (Pierce). Equal amounts of protein were then diluted four times in SDS sample buffer and subjected to SDS-PAGE and were detected by Western blotting with antibodies specific for Akt, phosph-Akt Ser^473, and GLUT4. The density blotting was analyzed using Alpha Easy FCsoftware (Alpha Innotech Corp., Randburg, South Africa).

GLUT4 [6] = experiment: GLUT4 protein expression in C2C12 myotube cells (Western blot); type: cell-based; details: 100 nM insulin, 25 min
Method: as §2, §3, §4
Supernatant protein was collected and stored at −20° C. Another portion of cells was homogenized with buffer (250 mmol/L sucrose, 50 mmol/L Tris, and 0.2 mmol/L edetic acid, pH 7.4) at 4° C., as previously described. The homogenates were centrifuged at 9000 g for 10 min (4° C.). The pellet was suspended with 0.5 mL of homogenization buffer and then centrifuged, repeated three times. The three supernatants were collected, mixed, and centrifuged at 190000 g for 60 min (4° C.). The pellet was resuspended with 0.2 mL of homogenization buffer, stored at −20° C., and performed within membrane.
as §5

Compound: CC(C)OC(=O)C(C)(C)Oc1ccc(C(=O)c2ccc(Cl)cc2)cc1 [Feno, fenofibrate, reference compound]
- average area of adipocytes in epididymal WAT ([1]; Feno 250 mg/kg/day oral): 5373.8±194.6 μm^2
- Tissue weight: BAT ([2]; Feno 250 mg/kg/day oral): 0.319 ± 0.030 wt %
- Tissue weight: EWAT ([2]; Feno 250 mg/kg/day oral): 0.743 ± 0.059 wt %
- Tissue weight: MWAT ([2]; Feno 250 mg/kg/day oral): 0.795 ± 0.070 wt %
- Tissue weight: RWAT ([2]; Feno 250 mg/kg/day oral): 0.154 ± 0.016 wt %
- Tissue weight: Visceral fat ([2]; Feno 250 mg/kg/day oral): 0.889 ± 0.075 wt %

Compound: CN(C)C(=N)N=C(N)N [Metf, metformin, reference compound]
- average area of adipocytes in epididymal WAT ([1]; Metf 300 mg/kg/day oral): 5308.9±204.7 μm^2
- ballooning of hepatocyte (liver histology) ([1]; Metf 300 mg/kg/day oral): no ballooning phenomenon
- muscular expression levels of phospho-AMPK/total AMPK compared with the STZ group (second sentence) (AMPK): increased
- mRNA level of PPARα in liver (PPARα [3]): increased
- membrane expression levels of GLUT4 in skeletal muscle vs STZ group (GLUT4 [4]): greater
- mRNA levels of PEPCK in liver (PEPCK): decreased
- expression levels of FAS in adipose tissue (FAS): decreased
- expression levels of FAS in the liver (FAS): decreased
- mRNA levels of G6 Pase in liver (G6 Pase): decreased
- mRNA levels of DGAT2 in liver (DGAT2): decreased
- Tissue weight: EWAT ([2]; Metf 300 mg/kg/day oral): 0.956 ± 0.047 wt %
- Tissue weight: RWAT ([2]; Metf 300 mg/kg/day oral): 0.176 ± 0.023 wt %
- Tissue weight: Visceral fat ([2]; Metf 300 mg/kg/day oral): 1.132 ± 0.054 wt %
- expression levels of PPARγ in adipose tissue (PPARγ): decreased
- expression levels of PPARγ in the liver (PPARγ): decreased
- expression levels of PPARα in the liver (PPARα [5]): increased
- mRNA levels of SREBP1c in liver (SREBP1c): decreased

Compound: insulin [reference compound]
- levels of phospho-Akt (Ser473)/total Akt proteins vs CON group (Akt): higher
- protein expressions of GLUT4 vs CON group (GLUT4 [6]): higher
